In US9233979B2, “Compounds that are ERK inhibitors” (Merck Sharp & Dohme Corp., priority 2012, dated 2016) one finds IC50 data, which are given here for 34 compounds.

pIC50: −log10 of the molar value.

Chain of phosphorylated active hERK2 enzyme (P28482 whole entry): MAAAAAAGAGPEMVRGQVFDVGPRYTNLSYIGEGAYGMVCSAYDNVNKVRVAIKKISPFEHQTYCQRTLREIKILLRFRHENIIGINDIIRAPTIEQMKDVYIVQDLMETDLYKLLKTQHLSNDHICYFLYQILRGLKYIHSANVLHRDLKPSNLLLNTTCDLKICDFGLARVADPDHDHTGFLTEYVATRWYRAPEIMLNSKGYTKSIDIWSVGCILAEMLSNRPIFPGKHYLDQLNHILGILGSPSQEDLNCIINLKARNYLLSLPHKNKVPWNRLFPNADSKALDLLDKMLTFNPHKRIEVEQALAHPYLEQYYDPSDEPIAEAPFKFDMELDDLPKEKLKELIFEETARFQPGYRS

The target of the first experiment is phosphorylated active hERK2 enzyme (Homo sapiens (Human), UniProt P28482). The experiment is described as follows: Active Human ERK2 (hERK2) Activity Assay (IMAP-FP). As to conditions: Table 5, 0.5 nM hERK2, 30 μM ATP, 10 point titration, read-out: AERK2 IC50. In kind it is biochemical. The method, then:
Assays Active Human ERK2 (hERK2) Activity Assay:
Activated ERK2 activity was determined in an IMAP-FP assay (Molecular Devices). […] The final reaction in each well of 25 μL consists of 0.5 nM hERK2, 900 nM unlabeled peptide, 80 nM labeled-peptide, and 30 μM ATP. Phosphorylation reactions were allowed to proceed for 60 minutes and were immediately quenched by the addition of 60 μL IMAP detection beads (1:1000 dilutions) in IMAP binding buffer (Molecular Devices) with 24 mM NaCl. Plates were read on EnVision reader after 60 minutes binding equilibration using Fluorescence Polarization protocol (Perkin Elmer).
As to `CCNc1n[nH]c2cc(NC(=O)N[C@H](C)c3ccccn3)ncc12` [Example 4, 1-[3-(ethylamino)-1H-pyrazolo[4,3-c]pyridin-6-yl]-3-[(1R)-1-pyridin-2-ylethyl]urea], the pIC50 is 7.71.

As to `C[C@@H](NC(=O)Nc1cc2[nH]nc(NS(C)(=O)=O)c2cn1)c1ccccc1` [Example 51, N-[6-({[(1R)-1-phenylethyl]carbamoyl}amino)-1H-pyrazolo[4,3-c]pyridin-3-yl]methanesulfonamide], the pIC50 is 6.19.

In the case of `CCNc1n[nH]c2cc(NC(=O)N[C@H](C)c3ccc(F)cc3)ncc12` [Example 5, 1-[3-(ethylamino)-1H-pyrazolo[4,3-c]pyridin-6-yl]-3-[(1R)-1-(4-fluorophenyl)ethyl]urea], the pIC50 is 9.00.

The experiment is the same for the next values; noted with them: Table 6, 0.5 nM hERK2, 30 μM ATP, 10 point titration, read-out: AERK2 IC50.
`CCNc1n[nH]c2cc(NC(=O)N[C@@H]3CN(C)C[C@H]3c3ccccc3)ncc12` [Example 253, 1-[3-(ethylamino)-1H-pyrazolo[4,3-c]pyridin-6-yl]-3-[(3S,4R)-1-methyl-4-phenylpyrrolidin-3-yl]urea]: the pIC50 was 9.00.

For the compound `C[C@@H](NC(=O)Nc1cc2[nH]nc(N)c2cn1)c1cccc(Cl)c1` [Example 272, 1-(3-amino-1H-pyrazolo[4,3-c]pyridin-6-yl)-3-[(1R)-1-(3-chloro-phenyl)ethyl]urea], the pIC50 is 8.25.

For `CC[C@@H](NC(=O)Nc1cc2[nH]nc(N3CCCC3)c2cn1)c1ccccn1` [Example 344, 1-[(1R)-1-pyridin-2-ylpropyl]-3-(3-pyrrolidin-1-yl-1H-pyrazolo[4,3-c]-pyridin-6-yl)urea], the negative logarithm of the IC50 (pIC50) is 5.99.

As for `COC(=O)Nc1n[nH]c2cc(NC(=O)N[C@H](C)c3cccc(Cl)c3)ncc12` [Example 287, methyl [6-({[(1R)-1-(3-chlorophenyl)-ethyl]carbamoyl}-amino)-1H-pyrazolo[4,3-c]-pyridin-3-yl}-carbamate], the pIC50 is 9.00.

For the compound `CCNc1n[nH]c2cc(NC(=O)N[C@@H](c3ccccc3)[C@H]3CCCO3)ncc12` [Example 149, 1-[3-(ethylamino)-1H-pyrazolo[4,3-c]pyridin-6-yl]-3-{(S)-phenyl[(2R)-tetrahydrofuran-2-yl]methyl}urea], the pIC50 is 9.22.

Regarding `Cc1ccc(Nc2n[nH]c3cc(NC(=O)N[C@H](C)c4ccccc4)ncc23)cn1` [Example 61, 1-{3-[(6-methylpyridin-3-yl)amino]-1H-pyrazolo[4,3-c]pyridin-6-yl}-3-[(1R)-1-phenylethyl]urea], the pIC50 was 8.06.

Consider `CN(C)c1ncccc1CNC(=O)Nc1cc2[nH]nc(N)c2cn1` [Example 274, 1-(3-amino-1H-pyrazolo[4,3-c]-pyridin-6-yl)-3-{[2-(dimethylamino)-pyridin-3-yl]-methyl}urea], for which the pIC50 was 7.49.

For `C[C@@H](NC(=O)Nc1cc2[nH]nc(N3CC(O)C3)c2cn1)c1ccccc1` [Example 79, 1-[3-(3-hydroxy-azetidin-1-yl)-1H-pyrazolo[4,3-c]-pyridin-6-yl]-3-[(1R)-1-phenylethyl]urea], the pIC50 was 8.01.

As for `COC[C@@H](NC(=O)Nc1cc2[nH]nc(NC(C)C(F)(F)F)c2cn1)c1ccccc1` (stereo partly drawn) [Example 422, 1-[(1S)-2-methoxy-1-phenylethyl]-3-{3-[(2,2,2-trifluoro-1-methylethyl)-amino]-1H-pyrazolo[4,3-c]-pyridin-6-yl}urea], the pIC50 was 9.10.

On to `C[C@@H](NC(=O)Nc1cc2[nH]nc(NCC3CC3)c2cn1)c1ccccc1` [Example 159, 1-{3-[(cyclopropyl-methyl)amino]-1H-pyrazolo[4,3-c]-pyridin-6-yl}-3-[(1R)-1-phenylethyl]urea], for which the pIC50 was 8.74.

On to `COC[C@@H](NC(=O)Nc1cc2[nH]nc(N(CC3CCC3)CC3CCC3)c2cn1)c1ccccc1` [Example 157, 1-{3-[bis(cyclobutyl-methyl)amino]-1H-pyrazolo[4,3-c]pyridin-6-yl}-3-[(1S)-2-methoxy-1-phenylethyl]urea], for which the negative-log IC50 (pIC50) is 7.03.

For `COC[C@@H](NC(=O)Nc1cc2[nH]nc(N[C@H]3CCOC3)c2cn1)c1ccccc1` [Example 76, 1-[(1S)-2-methoxy-1-phenylethyl]-3-{3-[(3S)-tetrahydro-furan-3-ylamino]-1H-pyrazolo[4,3-c]-pyridin-6-yl}urea], the negative-log IC50 (pIC50) is 8.89.

For `C[C@@H](NC(=O)Nc1cc2[nH]nc(NC(=O)Cc3ccc(F)cc3)c2cn1)c1ccccc1` [Example 206, 2-(4-fluorophenyl)-N-[6-({[(1R)-1-phenylethyl]-carbamoyl}amino)-1H-pyrazolo[4,3-c]pyridin-3-yl]-acetamide], the pIC50 was 9.30.

For `C[C@@H](NC(=O)Nc1cc2[nH]nc(N3CCC4(CC3)COC4)c2cn1)c1ccccc1` [Example 89, 1-[3-(2-oxa-7-azaspiro[3.5]non-7-yl)-1H-pyrazolo[4,3-c]pyridin-6-yl]-3-[(1R)-1-phenylethyl]-urea], the pIC50 was 8.04.

As to `CCNc1n[nH]c2cc(NC(=O)NCc3ncccc3F)ncc12` [Example 279, 1-[3-(ethylamino)-1H-pyrazolo[4,3-c]pyridin-6-yl]-3-[(3-fluoropyridin-2-yl)methyl]urea], the pIC50 was 7.20.

Consider `COC[C@@H](NC(=O)Nc1cc2[nH]nc(NC3CC3)c2cn1)c1ccccc1` [Example 329, 1-[3-(cyclopropyl-amino)-1H-pyrazolo[4,3-c]-pyridin-6-yl]-3-[(1S)-2-methoxy-1-phenylethyl]urea], for which the pIC50 is 9.00.

As to `C[C@@H](NC(=O)Nc1cc2[nH]nc(NCc3cccnc3)c2cn1)c1ccccc1` [Example 316, (R)-1-(1-phenylethyl)-3-(3-((pyridin-3-ylmethyl)amino)-1H-pyrazolo[4,3-c]pyridin-6-yl)urea], the negative logarithm of the IC50 (pIC50) is 9.15.

As to `COC[C@@H](NC(=O)Nc1cc2[nH]nc(N3CCC(O)CC3)c2cn1)c1ccccc1` [Example 410, 1-[3-(4-hydroxypiperidin-1-yl)-1H-pyrazolo[4,3-c]-pyridin-6-yl]-3-[(1S)-2-methoxy-1-phenylethyl]urea], the pIC50 is 8.92.

Regarding `C[C@@H](NC(=O)Nc1cc2[nH]nc(NC(=O)OC(C)(C)C)c2cn1)c1ccccc1` [Example 217, tert-butyl [6-({[(1R)-1-phenylethyl}-carbamoyl}amino)-1H-pyrazolo[4,3-c]pyridin-3-yl}-carbamate], the pIC50 is 7.32.

Consider `C[C@@H](NC(=O)Nc1cc2[nH]nc(N3CCC(C#N)CC3)c2cn1)c1ccccc1` [Example 423, 1-[3-(4-cyanopiperidin-1-yl)-1H-pyrazolo[4,3-c]-pyridin-6-yl]-3-[(1R)-1-phenylethyl]urea], for which the negative logarithm of the IC50 (pIC50) is 8.01.

For `CCNc1n[nH]c2cc(NC(=O)N[C@H](C)C3CCCCC3)ncc12` [Example 230, 1-[(1R)-1-cyclohexylethyl]-3-[3-(ethylamino)-1H-pyrazolo[4,3-c]pyridin-6-yl]urea], the negative-log IC50 (pIC50) is 7.93.

Take `Cc1nc(NC(=O)N[C@@H](c2ccccc2)C(C)(C)O)cc2[nH]nc(N3CCOCC3)c12` [Example 107, 1-[(1S)-2-hydroxy-2-methyl-1-phenylpropyl]-3-(4-methyl-3-morpholin-4-yl-1H-pyrazolo[4,3-c]-pyridin-6-yl)urea]: the negative-log IC50 (pIC50) is 9.52.

Consider `C[C@@H](NC(=O)Nc1cc2[nH]nc(NC(=O)C3CCCCC3)c2cn1)c1ccccc1` [Example 204, N-[6-({[(1R)-1-phenylethyl]-carbamoyl}amino)-1H-pyrazolo[4,3-c]pyridin-3-yl]-cyclohexane-carboxamide], for which the negative-log IC50 (pIC50) is 8.23.

Regarding `C[C@@H](NC(=O)Nc1cc2[nH]nc(NC3CCOCC3)c2cn1)c1ccccc1` [Example 327, 1-[(1R)-1-phenylethyl]-3-[3-(tetrahydro-2H-pyran-4-ylamino)-1H-pyrazolo[4,3-c]pyridin-6-yl]urea], the pIC50 was 9.00.

With `CC(C)NC(=O)Nc1n[nH]c2cc(NC(=O)N[C@H](C)c3ccccc3)ncc12` [Example 218, 1-(1-methylethyl)-3-[6-({[(1R)-1-phenylethyl]-carbamoyl}amino)-1H-pyrazolo[4,3-c]pyridin-3-yl]urea], the negative-log IC50 (pIC50) was 7.60.

For `CO[C@@H]1CCC[C@H]1NC(=O)Nc1cc2[nH]nc(N)c2cn1` [Example 416, 1-(3-amino-1H-pyrazolo[4,3-c]pyridin-6-yl)-3-[(1R,2R)-2-methoxy-cyclopentyl]urea], the pIC50 is 6.32.

Consider `C[C@@H](NC(=O)Nc1cc2[nH]nc(N)c2cn1)c1cccc(F)c1` [Example 270, 1-(3-amino-1H-pyrazolo[4,3-c]pyridin-6-yl)-3-[(1R)-1-(3-fluorophenyl)ethyl]urea], for which the pIC50 was 8.49.

With `C[C@@H](NC(=O)Nc1cc2[nH]nc(NC3(C)CCC3)c2cn1)c1ccccc1` [Example 356, 1-{3-[(1-methylcyclo-butyl)amino]-1H-pyrazolo[4,3-c]-pyridin-6-yl}-3-[(1R)-1-phenylethyl]urea], the negative-log IC50 (pIC50) is 7.27.

Consider `C[C@@H](NC(=O)Nc1cc2[nH]nc(NC3CCNCC3)c2cn1)c1ccccc1` [Example 162, 1-[(1R)-1-phenylethyl]-3-[3-(piperidin-4-ylamino)-1H-pyrazolo[4,3-c]-pyridin-6-yl]urea], for which the negative-log IC50 (pIC50) was 6.78.

As for `C[C@@H](NC(=O)Nc1cc2[nH]nc(N)c2cn1)C1CCCCC1` [Example 255, 1-(3-amino-1H-pyrazolo[4,3-c]pyridin-6-yl)-3-[(1R)-1-cyclohexyl-ethyl]urea], the negative-log IC50 (pIC50) is 7.74.

In the case of `C[C@@H](NC(=O)Nc1cc2[nH]nc(NC3CC(N(C)C)C3)c2cn1)c1ccccc1` (stereo partly drawn) [Example 169, 1-(3-{[3-(dimethylamino)-cyclobutyl]amino}-1H-pyrazolo[4,3-c]pyridin-6-yl)-3-[(1R)-1-phenylethyl]urea], the pIC50 was 7.30.

The term pIC50 denotes the negative decadic logarithm of the IC50, by convention in mol/L.
